Where two headings read alike, the source gives them in different places.
Test system: HCV replicon RNA in replicon cells
Assay: Replicon RNA response to antiviral agent(s), real time PCR (Taqman assay)
Type: cell-based
Conditions: Hepatitis C virus, read-out: Inhibitor IC50 in replicon cells
Protocol: Replicon RNA response to antiviral agent(s) was examined using the HCV protease inhibitor Formula Ia alone or in combination with HCV NS5B polymerase inhibitors 2′-methyl-adenosine, benzothiadiazine, indole-N-acetamide, or NM 107. Likewise, replicon RNA response to antiviral agent(s) was examined using the HCV protease inhibitor SCH 446211 (SCH 6) alone or in combination with HCV polymerase inhibitor ribavirin.
In brief, replicon cells were seeded at 4000 cells/well in 96-well collagen 1-coated Biocoat plates (Becton Dickinson). At 24 hrs post-seeding, replicon cells were treated with the requisite anti-viral agent(s). The final concentration of DMSO was 0.5%, fetal bovine serum was 5%, and G418 (an aminoglycoside used as a selective agent) was 500 μg/ml. Media and anti-viral agent(s) were refreshed daily for 3 days, at which point the cells were washed with PBS and lysed in 1× cell lysis buffer (Ambion cat #8721). The replicon RNA level was measured using real time PCR (Taqman assay). The ampicon was located in NS5B. […] (SEQ ID NO: 2); the probe sequence was FAM-labeled […] (SEQ ID NO: 3). GAPDH RNA was used as endogenous control and was amplified in the same reaction as NS5B (multiplex PCR) using primers and VIC-labeled probe recommended by the manufacture (PE Applied Biosystem). The real-time RT-PCR reactions were run on ABI PRISM 7900HT Sequence Detection System using the following program: 48° C. for 30 min, 95° C. for 10 min, 40 cycles of 95° C. for 15 sec, 60° C. for 1 min. The ΔCT values (CT5B−CTGAPDH) were plotted against drug concentration and fitted to the sigmoid dose response model using SAS (SAS Institute Inc.) or Graphpad PRISM software (Graphpad Software Inc.). The IC50 is the drug dose necessary to achieve ΔCT=1 over the projected baseline. […] Alternatively, to quantitate the absolute amount replicon RNA, a standard curve was established by including serially diluted T7 transcripts of replicon RNA in the Taqman assay. All Taqman reagents were from PE Applied Biosystem. […]

CC(C)(C)NC(=O)N[C@H](C(=O)N1CC2C([C@H]1C(=O)NC(CC1CCC1)C(=O)C(N)=O)C2(C)C)C(C)(C)C (stereo partly drawn) [Formula Ia]
IC50 (cells selected by: Formula Ia + 2′-methyl-adenosine): 3500 nM
IC50 (cells selected by: Formula Ia + Indole-N-acetamide): 2400 nM
IC50 (cells selected by: No treatment): 300 nM
